For the experiment, the system named is Human umbilical endothelial cells (HUVEC). Put plainly: Inhibition of VEGF165-stimulated HUVEC proliferation (3H-thymidine incorporation). The conditions noted are these: HUVEC stimulated with 5 ng/ml VEGF165 and 10 μg/ml heparin; 76 hours incubation then 16 hours 3H-thymidine; concentration inhibiting proliferation by 50%. The format is cell-based. As to the method: Human umbilical endothelial cells (HUVEC) were cultivated in IMDM (Gibco BRL), supplemented with 10% foetal calf serum (FBS) (Sigma), 50 μM of β-mercaptoethanol (Fluka), standard antibiotics, 15 μg/ml of endothelial cell growth factor (ECGS, Collaborative Biomedical Products) and 100 μg/ml of heparin (Sigma) on gelatine-coated culture dishes (0.2% gelatine, Sigma) at 37° C., under 5% CO2 in a water-saturated atmosphere.
In order to investigate the inhibitory activity of the compounds according to the invention the cells were “starved” for 16 hours, i.e. kept in culture medium without growth factors (ECGS+heparin). The cells were detached from the culture dishes using trypsin/EDTA and washed once in serum-containing medium. Then they were seeded out in amounts of 2.5×10^3 cells per well.
The proliferation of the cells was stimulated with 5 ng/ml of VEGF165 (vascular endothelial growth factor; H. Weich, GBF Braunschweig) and 10 μg/ml of heparin. As a control, 6 wells in each dish were not stimulated.
The compounds according to the invention were dissolved in 100% dimethylsulphoxide and added to the cultures in various dilutions as triple measurements, the maximum dimethylsulphoxide concentration being 0.3%.
The cells were incubated for 76 hours at 37° C., then for a further 16 hours ^3H-thymidine (0.1 μCi/well, Amersham) was added in order to determine the DNA synthesis. Then the radioactively labelled cells were immobilised on filter mats and the radioactivity incorporated was measured in a β-counter. In order to determine the inhibitory activity of the compounds according to the invention the mean value of the non-stimulated cells was subtracted from the mean value of the factor-stimulated cells (in the presence or absence of the compounds according to the invention).
The relative cell proliferation was calculated as a percentage of the control (HUVEC without inhibitor) and the concentration of active substance which inhibits the proliferation of the cells by 50% (IC50) was determined.
Consider `COC(=O)c1ccc2c(c1)NC(=O)/C2=C(\Nc1ccc(C(=O)N(C)CCN(C)C)cc1)c1ccccc1` [(a), methyl 3-(Z)-[1-{4-[N-(2-dimethylamino-ethyl)-N-methyl-carbamoyl]-phenylamino}-1-phenyl-methylidene]-2-indolinone-6-carboxylate], for which the IC50 amounted to 40 nM. Consider `COC(=O)c1ccc2c(c1)NC(=O)/C2=C(\Nc1ccc(C(=O)N(C)CCCN(C)C)cc1)c1ccccc1` [(b), methyl 3-(Z)-[1-{4-[N-(3-dimethylamino-propyl)-N-methyl-carbamoyl]-phenylamino}-1-phenyl-methylidene]-2-indolinone-6-carboxylate], for which the IC50 turned out to be 20 nM. The figure for “methyl 3-(Z)-[1-{4-[(4-(2-hydroxy-ethyl)-piperazin-1-yl)-carbonyl]-phenylamino}1-phenyl-methylidene]-2-indolinone-6-carboxylate [(i)]” is 20 nM. The figure for “methyl 3-(Z)-[1-{4-[(4-methyl-piperazin-1-yl)-carbonyl]-phenylamino}-1-phenyl-methylidene]-2-indolinone-6-carboxylate [(c)]” is 30 nM.

Regarding “methyl 3-(Z)-[1-{4-[(4-hydroxy-piperidin-1-yl)-carbonyl]-phenylamino}-1-phenyl-methylidene]-2-indolinone-6-carboxylate [(d)]”, the IC50 was 50 nM.

Consider “methyl 3-(Z)-[1-{4-[(4-ethyl-piperazin-1-yl)-carbonyl]-phenylamino}-1-phenyl-methylidene]-2-indolinone-6-carboxylate [(h)]”, for which the IC50 was 20 nM.

One may read the IC50 as the concentration at which inhibition is half-maximal.

Values taken from patent publication US6858641B2, “Substituted indolinones” (Boehringer Ingelheim Pharma KG, priority 2001, dated 2005).
